Laboratory results published in paper PMC5295242, “Synthesis of Natural O-Linked Carba-Disaccharides, (+)- and (−)-Pericosine E, and Their Analogues as α-Glucosidase Inhibitors” (Marine Drugs, 2017).

Tests used:
[1] = target: α-glucosidase (yeast) (Saccharomyces cerevisiae, UniProt P53341); test: α-glucosidase inhibition assay (p-nitrophenyl α-D-glucopyranoside substrate); type: biochemical; details: yeast enzyme; relative to positive control DNJ
Description: (§1) Eight samples synthesized here were used in a biological assay against three glycosidases, namely α-glucosidase (yeast), β-glucosidase (sweet almond), and α-mannosidase (Jack bean).
(§2) After incubation for 20 min at 37 °C, the reaction was interrupted by the addition of 0.5 M sodium carbonate (100 μL). The amount of p-nitrophenol liberated was measured colorimetrically at 400 nm (optical density at 400 nm: ODtest). […] Assays for β-glucosidase and α-mannosidase were carried out as outlined above using p-nitrophenyl β-D-glucopyranoside and α-D-mannopyranoside as the substrates.

[2] = target: T1, α-mannosidase (Jack bean) (Canavalia ensiformis, UniProt C0HJB3); test: α-mannosidase inhibition assay (p-nitrophenyl α-D-mannopyranoside substrate); type: biochemical; details: Jack bean enzyme; NI = no inhibition
T1 construct: purchased Sigma-Aldrich Co. LLC. lot; 055K7047 (catalogue number not given)
T1 sequence (C0HJB3 1-981): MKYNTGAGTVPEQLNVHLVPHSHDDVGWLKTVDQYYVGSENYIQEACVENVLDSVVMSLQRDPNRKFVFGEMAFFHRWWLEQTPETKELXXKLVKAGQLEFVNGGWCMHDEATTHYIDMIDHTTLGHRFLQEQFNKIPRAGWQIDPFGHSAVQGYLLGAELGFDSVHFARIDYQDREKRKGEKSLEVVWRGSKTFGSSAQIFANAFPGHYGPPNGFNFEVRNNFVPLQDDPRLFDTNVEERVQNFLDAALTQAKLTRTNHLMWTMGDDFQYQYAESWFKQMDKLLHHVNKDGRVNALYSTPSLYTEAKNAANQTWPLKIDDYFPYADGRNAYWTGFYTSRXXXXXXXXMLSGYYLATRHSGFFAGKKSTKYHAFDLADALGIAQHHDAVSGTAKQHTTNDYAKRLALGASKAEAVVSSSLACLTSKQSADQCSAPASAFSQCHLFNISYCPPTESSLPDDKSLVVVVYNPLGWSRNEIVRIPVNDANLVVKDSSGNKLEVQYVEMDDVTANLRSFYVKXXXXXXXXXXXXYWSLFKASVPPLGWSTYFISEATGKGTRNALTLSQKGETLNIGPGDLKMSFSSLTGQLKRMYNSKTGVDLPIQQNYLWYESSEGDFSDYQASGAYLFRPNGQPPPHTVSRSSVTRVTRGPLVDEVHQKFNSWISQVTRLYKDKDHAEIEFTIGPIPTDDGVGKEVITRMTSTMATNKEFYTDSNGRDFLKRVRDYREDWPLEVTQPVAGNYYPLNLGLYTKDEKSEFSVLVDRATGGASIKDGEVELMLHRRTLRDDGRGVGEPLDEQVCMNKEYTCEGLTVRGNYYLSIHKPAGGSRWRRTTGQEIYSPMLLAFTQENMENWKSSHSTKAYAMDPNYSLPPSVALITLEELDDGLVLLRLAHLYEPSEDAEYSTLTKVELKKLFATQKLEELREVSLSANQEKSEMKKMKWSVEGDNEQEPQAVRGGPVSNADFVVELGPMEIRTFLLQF
Description: as §1, §2
(§3) Assays on β-glucosidase and α-mannnosidase inhibition of synthesized carbadisaccharides 6 and 21–23 were carried out in a similar fashion.

[3] = target: β-glucosidase (sweet almond); test: β-glucosidase inhibition assay (p-nitrophenyl β-D-glucopyranoside substrate); type: biochemical; details: sweet almond enzyme; NI = no inhibition
Description: as §1, §2, §3

[4] = system: melanoma cell line UACC-62; parameters: method as in PMID 24285637, PMID 26928999; details: cited from earlier work

Sequence of α-glucosidase (yeast) (P53341 whole entry): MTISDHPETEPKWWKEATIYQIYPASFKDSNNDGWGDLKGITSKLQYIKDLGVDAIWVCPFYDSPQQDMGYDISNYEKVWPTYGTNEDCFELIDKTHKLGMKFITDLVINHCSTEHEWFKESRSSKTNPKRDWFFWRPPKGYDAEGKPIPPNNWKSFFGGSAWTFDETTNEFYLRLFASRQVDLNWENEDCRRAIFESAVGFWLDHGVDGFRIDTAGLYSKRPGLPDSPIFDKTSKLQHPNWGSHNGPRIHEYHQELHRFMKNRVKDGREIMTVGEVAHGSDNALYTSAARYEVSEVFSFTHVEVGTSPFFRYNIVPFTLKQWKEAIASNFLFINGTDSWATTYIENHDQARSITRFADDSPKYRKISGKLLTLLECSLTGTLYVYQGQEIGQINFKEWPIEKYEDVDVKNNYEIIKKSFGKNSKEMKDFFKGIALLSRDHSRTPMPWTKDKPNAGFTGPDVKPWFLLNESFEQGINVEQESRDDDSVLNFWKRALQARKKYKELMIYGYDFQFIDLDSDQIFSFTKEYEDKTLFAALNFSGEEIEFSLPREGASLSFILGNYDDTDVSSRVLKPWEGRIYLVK

Row | SMILES | IC50 [2] [mM] | IC50 [3] [mM] | α-glucosidase inhibitory potency relative to deoxynojirimycin (DNJ), fold/times [1] | inhibition against melanoma cell line UACC-62 [4]
1 | COC(=O)C1=C[C@@H](O)[C@@H](O)[C@@H](O[C@@H]2C(C(=O)OC)=C[C@H](O)[C@H](O)[C@@H]2O)[C@@H]1Cl [(−)-pericosine E (6), (3R,4R,5R,6R)-methyl 6-chloro-3,4-dihydroxy-5-{[(1R,4S,5S,6S)-4,5,6-trihydroxy-2-(methoxycarbonyl)cyclohex-2-en-1-yl]oxy}cyclohex-1-enecarboxylate] | > 10 | > 10 | one-third | 
2 | COC(=O)C1=C[C@@H](O)[C@@H](O)[C@@H](O[C@@H]2C(C(=O)OC)=C[C@H](O)[C@H](O)[C@H]2O)[C@@H]1Cl [(−)-21] | > 10 | > 10 | one-third | 
3 | COC(=O)C1=C[C@H](O)[C@H](O)[C@H](O[C@H]2C(C(=O)OC)=C[C@@H](O)[C@@H](O)[C@H]2O)[C@H]1Cl [(+)-pericosine E (6)] | > 10 | > 10 |  | 
4 | COC(=O)C1=C[C@H](O)[C@H](O)[C@H](O)[C@@H]1O[C@H]1[C@@H](O)[C@@H](O)C=C(C(=O)OC)[C@@H]1Cl [(+)-22] | > 10 | > 10 |  | 
5 | COC(=O)C1=C[C@@H](O)[C@@H](O)[C@@H](O[C@H]2C(C(=O)OC)=C[C@@H](O)[C@@H](O)[C@@H]2O)[C@@H]1Cl [(−)-23] | > 10 | > 10 |  | 
6 | COC(=O)C1=C[C@H](O)[C@H](O)[C@@H](O)[C@@H]1O[C@H]1[C@@H](O)[C@@H](O)C=C(C(=O)OC)[C@@H]1Cl [(+)-23] | > 10 | > 10 |  | 
7 | C=C[C@@H]1C[C@H](C)C[C@H](C)[C@H]1c1c(O)ccn(O[C@@H]2C(C(=O)OC)=C[C@@H](O)[C@@H](O)[C@H]2O)c1=O [maximiscin] |  |  |  | potent inhibition

The next lines start with results.

Row | IC50 [2] [mM] | IC50 [3] [mM] | SMILES | α-glucosidase inhibitory potency relative to deoxynojirimycin (DNJ), fold/times [1] | inhibition against melanoma cell line UACC-62 [4]
8 | > 10 | > 10 | COC(=O)C1=C[C@@H](O)[C@@H](O)[C@@H](O[C@H]2C(C(=O)OC)=C[C@@H](O)[C@@H](O)[C@H]2O)[C@@H]1Cl [(−)-22] |  | 
9 | > 10 | > 10 | COC(=O)C1=C[C@H](O)[C@H](O)[C@H](O[C@H]2C(C(=O)OC)=C[C@@H](O)[C@@H](O)[C@@H]2O)[C@H]1Cl [(+)-21] |  | 
